What was measured:
human fetal NSC (hf5205) = assay: Immunocytochemistry for Vglut1 after 3 weeks differentiation; format: cell-based; conditions: 2-step growth withdrawal
Procedure: Antibodies included: Beta-III tubulin (1:100 MAB1637), GFAP (1:1000, DAKO), Vglut1 (1:1000, Synaptic system), GABA (1:1000, Sigma). Appropriate fluorescent-conjugated secondary antibodies were used at 1:500 for 1 h at room temperature. Coverslips were mounted with fluorescent mounting medium (DAKO) containing DAPI (1:1000) and cells were imaged using Leica microscope. Hit validation for differentation. All retests for differentiation were done by a two step growth withdrawal method (as described in Sun et al. Mol. Cell. Neurosci. 38(2008) 245-258) with and without the test compound for 8 days. […] Immunocytochemistry was performed for a series of antibodies marking different classes of neurons based on their neurotransmitters including glutamatergic, dopaminergic, cholinergic and serotonergic. […] Vglut1 is a vesicular glutamate transporter required for transport of glutamate into synaptic vesicles of glutamatergic neurons.

Hf5205 cells = assay: Single cell qPCR (Fluidigm analysis) of differentiated cells; format: cell-based, human; conditions: 3.5 μM, three weeks
Procedure: Single Cell qPCR (Fluidigm Analysis). Differentiated hfNS (hf5205) at week 3 was accutased and cells were resuspended in NS medium containing 1 μg per ml of propidium iodide and filtered through a 40 μm nylon cell strainer followed by live single cell sorting into a 96 well qPCR plate on a BD cell sorter. Cells were sorted into 10 μl of preamplification mix containing 40 nM of all primers for the 48 genes, and the following components of CellsDirect One-Step qRT-PCR kit (Invitrogen) as directed in protocol: 2× reaction mix, SuperScript III RT/platinum Taq mix. After sorting, samples were reverse transcribed and preamplified for 18 cycles. Preamplified samples were diluted (2×) with TE buffer and stored at −20° C. Sample and assay primer preparation for Fluidigm Dynamic arrays was done according to the manufacturer's recommendation. Samples were mixed with 2× assay loading reagent (Fluidigm Corp), 20× EvaGreen and TaqMan gene expression master mix. The Fluidigm Dynamic arrays were primed and loaded on the IFC controller and qPCR experiments were run on a Biomark system for genetic analysis.
Fluidigm Analysis. Hf5205 cells were differentiated in the two-step growth withdrawal method, with and without L-741,742 (3.5 μM) for three weeks. The differentiated cells were harvested and filtered through a 40 uM nylon filter and live sort single cell (based on PI staining) into a 96 well qRT-PCR plate containing pre-amplification mix of 48 primers, reverse transcribed and amplified for 48 genes (as described in Pasca et al. Nature Medicine (2011) November 27; 17(12) 1657-62) in one step using a kit from Invitrogen. Samples and primer pairs were prepared for Fluidigm as per protocol. Cells were identified based on presence of RPS18 and GAPDH, Data was analyzed based on population of cells expressing particular genes using different CT value cut off.
Characterization of L-741,742-differentiated cells by Fluidigm analysis. To further characterize the different population of neurons in L-741,742 differentiated culture, a single cell Fluidigm array was employed that can perform multiple qRT-PCR (48 genes or 96 genes) at a single cell level as shown in FIG. 6. Forty eight (48) gene primers marking various cell populations were used including, early progenitor marking dorsal, ventral or midbrain, differentiated neuronal markers based on neurotransmitters GABA or glutamatergic and markers specifying different cortical layers. Primer sequences were obtained from Pasca et al. Nature Medicine (2011) November 27; 17(12) 1657-62).

human fetal NSC [1] = assay: RT-qPCR gene expression of neuronal lineage and cortical layer markers in differentiated cells; format: cell-based
Procedure: Hit validation for differentation. All retests for differentiation were done by a two step growth withdrawal method (as described in Sun et al. Mol. Cell. Neurosci. 38(2008) 245-258) with and without the test compound for 8 days. Test compounds included L-741,742 (3 μM), PNU96415E (15 μM), Ifenprodil tartrate (1.5 μM), McN A-343 (4 μM), and (−) —N-Phenylcarbamoyleseroline (6 μM). For mature neuronal marker analysis, human fetal NSC were differentiated for 3 weeks using L-741,742 (2-4 μM varying at different stages) in the two step growth withdrawal method.
The differentiated cells were further tested for gene expression of different neuronal lineage markers by RT-qPCR. A series of primers were designed for markers representing both neurotransmitters and domain specific regions as shown in Table 1.
L-741,742-differentiated neurons show cortical layer V marker. L-741,742-differentiated cells show increased expression of VGLUT1 and NEUROG2. NEUROG2 expression is required for promoting excitatory neurons in the dorsal cortical region during development. To test if L-741,742 promotes or specifies specific cortical layer neurons, a series of primers were designed to mark all layers of cortex; Reelin (layer 1), Tbr1 (layer V1), Ctip2 (Layer V), Satb2 (Layer II-III) and Foxg1 (telenchepalic marker) (Table 1). The expression of these markers in L-741,742-differentiated cells was determined by RT-qPCR. […] Thus, L-741,742-differentiated neurons express cortical layer V marker CTIP2 and telencephalic marker FOXG1, with VGLUT1 expression, indicating differentiation into cortical layer neurons.

human fetal NSC [2] = assay: GABA staining of differentiated cells, week 1-3; format: cell-based; conditions: 2 week differentiated cells
Procedure: Immunocytochemistry. hfNS cells differentiated on coverslips were fixed with 4% paraformaldehyde and permeabilized with 0.3% Triton X100, block with 5% goat serum, and incubated with primary antibody overnight at 4° C. Antibodies included: Beta-III tubulin (1:100 MAB1637), GFAP (1:1000, DAKO), Vglut1 (1:1000, Synaptic system), GABA (1:1000, Sigma). Appropriate fluorescent-conjugated secondary antibodies were used at 1:500 for 1 h at room temperature. Coverslips were mounted with fluorescent mounting medium (DAKO) containing DAPI (1:1000) and cells were imaged using Leica microscope.
L-741,742-differentiated cells were also tested for GABA staining from week 1-3 and GABA positive cells were present in early in 1 week differentiated cells, showing up to 11% GABA positive neurons in 2 week differentiated cells (FIG. 5).

Compound | Vglut1-positive staining indicating differentiation into glutamatergic neurons (human fetal NSC (hf5205)) | expression of CAMKII (marking glutamatergic neurons) (Hf5205 cells) | expression of EVT1 (marking lower cortical layer V) (Hf5205 cells) | expression of MAP2 (marking neurons) (Hf5205 cells) | expression of VGLUT1 (marking glutamatergic neurons) (Hf5205 cells) | expression of VGLUT2 (marking glutamatergic neurons) (Hf5205 cells) | expression of VGLUT3 (marking glutamatergic neurons) (Hf5205 cells) | Reelin expression (human fetal NSC [1]; at the concentration tested) | Tbr1 expression (human fetal NSC [1]; at the concentration tested) | increase in NEUROG2 expression (human fetal NSC [1]; compared to the control) [fold] | increase in VGLUT1 expression (human fetal NSC [1]; compared to the control) | increase in CTIP2 expression (human fetal NSC [1]; cortical layer V marker) | increase in FOXG1 expression (human fetal NSC [1]; telencephalic marker) [fold] | GABA positive neurons (human fetal NSC [2])
Cl.Cl.Fc1ccc(N2CCN(CCC3OCCc4ccccc43)CC2)cc1 (stereo not shown) [PNU96415E] | Vglut1-positive staining | – | – | – | – | – | – | – | – | – | – | – | – | –
Ifenprodil tartrate | Vglut1-positive staining | – | – | – | – | – | – | – | – | – | – | – | – | –
Cc1c(C2CCN(CCc3ccccc3)CC2)noc1-c1ccc(Cl)cc1 [L-741,742] | Vglut1-positive staining | increase | increase | increase | increase | increase | increase | not detectable | not detectable | 11 | 15-35 fold | approximately 23 fold | ~27 | up to 11%
